“Also recorded” adds a separate entry of the source.
Legend:
[1] = test system: ER+ breast cancer cell lines (MCF-7, ZR-75 and T-47D); experiment: Cell Titer-Glo dose dependent viability assay, ER+ breast cancer cell lines; format: cell-based
Experimental: (§1) To measure the effects of TC-E 5008 on cell viability, breast cancer cells were seeded in 96-well plates (4×10^3 cells/well) in RPMI medium containing 10% fetal bovine serum. After an overnight incubation, cells were treated with varying concentrations of TC-E 5008 or other mutant IDH1 inhibitors for 72 hours. Viability was measured using Cell Titer-Glo Luminescent Cell Viability Assay (Promega) in 96-well, flat, clear-bottom, opaque-wall micro plates according to manufacturer's protocol. IC50 was less than […] in ER+ breast cancer cell lines and greater than […] in ER− breast cancer cell lines, as shown in the Figures.
(§2) A compound having a structure in accordance with Formula II (sometimes referred to herein as “TC-E 5008”) was selected for validation with an integrated confidence score of 1362.6. Three commonly used ER-positive breast cancer cell lines MCF-7, ZR-75 and T-47D were used for in vitro validation.

[2] = test system: ER-positive breast tumors samples; experiment: Patient-derived explant (PDE) ex vivo culture of primary breast tumors, Ki-67 staining; format: cell-based, human
Experimental: Excised tissue samples were processed and cultured ex vivo. De-identified tumors were obtained from the University of Texas Southwest Tissue Repository after institutional review board approval. Briefly, tumor samples were incubated on gelatin sponges for 24 hours in culture medium containing 10% fetal bovine serum (hereafter “FBS”), followed by treatment with either vehicle, 10 μM TC-E 5008 for 72 hours. Representative tissues were fixed in 10% formalin at 4° C. overnight and subsequently processed into paraffin blocks. The sections were then processed for immunohistochemical analysis.
In order to further validate TC-E 5008, an ex vivo culture model of primary breast tumors was used—which allows for the validation of drugs on breast tumors in their native tissue architecture. Specifically, surgically resected breast tissues were sliced into small pieces and grown ex vivo for short term on a gelatin sponge in the absence or presence of desired compound (see FIG. 4). In order to test TC-E 5008 in a variety of ER-positive tumors, estrogen receptor positivity was the only inclusion criteria used for the breast tumor samples.

[3] = test system: ER− breast cancer cell lines (triple negative breast cancer cell line); experiment: Cell Titer-Glo dose dependent viability assay, ER- breast cancer cell lines; format: cell-based
Experimental: as §1, §2

[4] = ER-positive tumor explants, 10 μM, 72 hours
[5] = ER-positive tumor explants, 10 μM, 72 hours, versus untreated controls

With Cc1cc(Cc2ccccc2)n(O)c(=O)c1 [TC-E 5008] the IC50 ([1]; ER+ breast cancer cell lines, 72 hours, Cell Titer-Glo) was less than 2 µM, the “anti-proliferative activity / proliferation” value ([1]; ER-positive lines MCF-7, ZR-75 and T-47D, FIG. 1, 8, 9) was “anti-proliferative activity; also recorded: blocked proliferation of all three ER-positive breast cancer cell lines” and the “patients showing a reduction in Ki-67 staining (Partial responders)” value [2, 4] was 3/10. For the same compound, the “patients showing a significant reduction (Complete responders)” value [2, 4] was 4/10, the “patients with decreased proliferation (Ki-67 staining)” value [2, 4] was 7/10 and the “reduction in Ki-67 staining, Complete responders” value [2, 5] was 40-95%. The “reduction in Ki-67 staining, Partial responders” value [2, 5] was 0-25%, the “tumor tissues showing an increase in proliferation (Non-responders)” value ([2]; compared to untreated controls, FIG. 7) was “Three” and the response rate ([2]; limited cohort of 10 ER-positive tumors) was 40%. For the same compound, the proliferative indices ([2]; primary tumor explants cultured ex vivo, 10 μM, 72 hour) was “significant decrease in proliferative indices”, the “morphological changes in the patient tissues” value ([2]; treated tissues compared to controls) was “did not observe morphological changes” and the IC50 ([3]; ER− breast cancer cell lines, 72 hours, Cell Titer-Glo) was greater than 10 µM. For the same compound, the activity on proliferation ([3]; triple negative breast cancer cell line, FIG. 2) was “showed less activity”.

Source: patent US20230406825A1, “COMPOUNDS, COMPOSITIONS THEREOF, AND METHODS FOR TREATING ER+ BREAST CANCER” (The Board of Regents of The University of Texas System, priority 2020, published 2023)
